From ChEMBL document CHEMBL4513135, “CO-ADD screening of IQOG CSIS (Spain) compounds”
Values after ≈ are worked out from the molar mass of the structure shown.

Tests used:
[1] = tested on: HEK293; assay: cells; format: functional; conditions: Homo sapiens, ATCC CRL1573, HEK293; ASSAY_TEST Inhibition of Cell Viability; detection method Resazurin; Fluorescence (ex560/em590); MEDIA DMEM with 10% FBS; plate type 384well; TC; CORNING #3712; time 18 hr
[2] = tested on: Cryptococcus neoformans
Description: Antifungal activity against Cryptococcus neoformans H99 ATCC 208821 (CO-ADD:FG_002); MIC in YNB media using NBS plates, by Resazurin OD(600-570)

[3] = tested on: Staphylococcus aureus; assay: microbe, parasite or virus in culture; conditions: ATCC 43300, 18 h, ASSAY_TEST Inhibition of Bacterial Growth, detection method Absorption (OD600), MEDIA CAMHB, plate type 384well, NBS, CORNING #3640
Description: Antibacterial activity against Staphylococcus aureus MRSA ATCC 43300 (CO-ADD:GP_020); MIC in CAMBH media, using NBS plates, by OD(600)

[4] = tested on: Escherichia coli; assay: microbe, parasite or virus in culture; conditions: ATCC 25922, 18 h, ASSAY_TEST Inhibition of Bacterial Growth, detection method Absorption (OD600), MEDIA CAMHB, plate type 384well, NBS, CORNING #3640
Description: Antibacterial activity against Escherichia coli ATCC 25922 (CO-ADD:GN_001); MIC in CAMBH media using NBS plates, by OD(600)

[5] = tested on: Klebsiella pneumoniae; assay: microbe, parasite or virus in culture; conditions: ATCC 700603, 18 h, ASSAY_TEST Inhibition of Bacterial Growth, detection method Absorption (OD600), MEDIA CAMHB, plate type 384well, NBS, CORNING #3640
Description: Antibacterial activity against Klebsiella pneumoniae MDR ATCC 70063 (CO-ADD:GN_003); MIC in CAMBH media using NBS plates, by OD(600)

[6] = tested on: Pseudomonas aeruginosa; assay: microbe, parasite or virus in culture; conditions: ATCC 27853, 18 h, ASSAY_TEST Inhibition of Bacterial Growth, detection method Absorption (OD600), MEDIA CAMHB, plate type 384well, NBS, CORNING #3640
Description: Antibacterial activity against Pseudomonas aeruginosa ATCC 27853 (CO-ADD:GN_042); MIC in CAMBH media using NBS plates, by OD(600)

[7] = tested on: Acinetobacter baumannii; assay: microbe, parasite or virus in culture; conditions: ATCC 19606, 18 h, ASSAY_TEST Inhibition of Bacterial Growth, detection method Absorption (OD600), MEDIA CAMHB, plate type 384well, NBS, CORNING #3640
Description: Antibacterial activity against Acinetobacter baumannii ATCC 19606 (CO-ADD:GN_034); MIC in CAMBH media using NBS plates, by OD600

[8] = tested on: Candida albicans; assay: microbe, parasite or virus in culture; conditions: ATCC 90028, ASSAY_TEST Inhibition of Fungal Growth, detection method Absorption (OD530), plate type 384well, NBS, CORNING #3640
Description: Antifungal activity against Candida albicans ATCC 90028 (CO-ADD:FG_001); MIC in YNB media using NBS plates, by OD630

Compound | CC50 [1] [µg/mL] | MIC [2] [µg/mL] | MIC [3] [µg/mL] | MIC [4] [µg/mL] | MIC [5] [µg/mL] | MIC [6] [µg/mL] | MIC [7] [µg/mL] | MIC [8] [µg/mL]
CCOC(=O)C1=C(C)OC(N)=C(C#N)C1c1ccc(Cl)cc1 (configuration not stated) | > 32 | > 32 | > 32 | > 32 | > 32 | > 32 | > 32 | 32 (≈ 100 µM)
N#Cc1c(N)nc(Sc2ccccc2)c(C#N)c1-c1ccccc1 | > 32 | > 32 | > 32 | > 32 | > 32 | > 32 | > 32 | > 32
CC#CCN(C)Cc1cc2cc(OCc3ccccc3)ccc2[nH]1.O=C(O)C(=O)O | > 32 | > 32 | > 32 | > 32 | > 32 | > 32 | > 32 | > 32
Oc1ccc(CCl)c2cccnc12 | 5.81 (≈ 30 µM) | 16 (≈ 82.6 µM) | > 32 | > 32 | > 32 | 32 (≈ 165 µM) | > 32 | > 32
N#Cc1c(NCCC2CCN(Cc3ccccc3)CC2)nc(NCCC2CCN(Cc3ccccc3)CC2)c(C#N)c1-c1ccccc1 | > 32 | > 32 | > 32 | > 32 | > 32 | > 32 | > 32 | > 32
N#Cc1c(N)[n+]([O-])c2ccccc2[n+]1[O-] | > 32 | > 32 | > 32 | 16 (≈ 79.1 µM) | > 32 | > 32 | > 32 | > 32
N#CC1=C(N)Oc2c(ccc3ccccc23)C1c1ccc([N+](=O)[O-])cc1 (configuration not stated) | 0.259 (≈ 0.754 µM) | > 32 | > 32 | > 32 | > 32 | > 32 | > 32 | > 32
C#CCN(C)c1nc(NCCCC2CCN(Cc3ccccc3)CC2)c(C#N)c(-c2ccccc2)c1C#N.Cl | 8.06 | 32 | > 32 | > 32 | > 32 | > 32 | > 32 | > 32
COc1ccc(OC)c2nc(Cl)c(C=O)cc12 | > 32 | > 32 | > 32 | > 32 | > 32 | > 32 | > 32 | > 32
Cn1ccnc1C1c2c(nc3c(c2N)CCCCC3)Oc2ccc3ccccc3c21 (configuration not stated) | > 32 | > 32 | > 32 | > 32 | > 32 | > 32 | > 32 | > 32
N#CC(C#N)=Cc1cccc([N+](=O)[O-])c1 | > 32 | > 32 | > 32 | > 32 | > 32 | 32 (≈ 161 µM) | > 32 | > 32
COc1nc2n[nH]c(N)c2c(-c2ccccc2)c1C#N | 5.47 (≈ 20.6 µM) | > 32 | > 32 | > 32 | > 32 | > 32 | > 32 | > 32
CCOC(=O)C(=Cc1ccccc1)C(C)=O | 13.5 (≈ 61.9 µM) | 8 (≈ 36.7 µM) | > 32 | > 32 | > 32 | > 32 | > 32 | 16 (≈ 73.3 µM)
CCOC(=O)c1cc2cc(OCCCC3CCN(Cc4ccccc4)CC3)ccc2[nH]1.Cl | 16.5 | > 32 | > 32 | > 32 | > 32 | > 32 | > 32 | > 32
CCOC(=O)c1c(C)nc(NCCCCC2CCN(Cc3ccccc3)CC2)c(C#N)c1-c1ccccc1 | 18.8 (≈ 36.8 µM) | > 32 | > 32 | > 32 | > 32 | > 32 | > 32 | > 32
C#CCNCc1cc2cc(OCc3ccccc3)ccc2[nH]1.Cl | 4.04 | > 32 | > 32 | > 32 | > 32 | > 32 | > 32 | > 32
COc1ccc(CCl)c2cccnc12 | > 32 | > 32 | > 32 | > 32 | > 32 | > 32 | > 32 | 32 (≈ 154 µM)
Cl.Oc1ccc(CCl)c2cccnc12 | 2.26 | 1 | 4 | > 32 | > 32 | 32 | > 32 | 16
CC1=C(C(=O)OC(C)(C)C)C(c2ccccc2)C(C#N)=C(N)O1 (configuration not stated) | > 32 | > 32 | > 32 | > 32 | > 32 | > 32 | > 32 | 32 (≈ 102 µM)
